Assay results published in patent publication US20260115186A1, “PIPERIDINE UREA DERIVATIVES FOR CANCER THERAPY” (NEUROPN THERAPEUTICS INC., priority 2022, published 2026).

Tested on: adult zebrafish, paclitaxel induced nerve damage
Assay: Paclitaxel-induced peripheral neuropathy in adult zebrafish (tail fin stimulation)
Format: in vivo
Conditions: 3 μL of 10-μM paclitaxel, four consecutive days (Days 2-5), FIG. 9
Experimental: Method to evaluate potential of compounds of Formula 1 to reduce or block chemotherapy-induced peripheral neuropathy—Animal (zebrafish) model described below and in literature (Lisse T S et al PNAS 113 (15) E2189-E2198) was used to evaluate potential of compounds of Formula 1 to reduce or block neuronal damage induced by chemotherapeutics.
To induce peripheral neuropathy in adult zebrafish, 3 μL of a 10-μM paclitaxel solution in 0.15% DMSO was administered with a 33 gauge Hamilton Syringe for a zebrafish with average ˜200 mg body weight. Fish were treated with vehicle alone or paclitaxel for four consecutive days (Days 2-5) or paclitaxel with Compound A (10- or 30 ng). Compound A was dosed orally by mixing with the fish feed pellets. Fishes were conditioned to consume three pellets a day. […] To prepare test compound infused pellet, a known quantity of the compound was mixed with the known quantity of the feed powder and were extruded in to 4 mg pellet containing the desired administration dose per pellet. Concentration of test compound dosed per fish were controlled by the number of pellets and the quantity of compound per pellet. […]
To determine the peripheral nerve damage, fish were wrapped in plastic foil until calm, and the distal tail fin was stimulated with an insect pin until twitching of the fish was observed. Number of stimuli until twitch was recorded.

**Q.** With CC(=O)O[C@H]1C(=O)[C@@]2(C)[C@H]([C@H](OC(=O)c3ccccc3)[C@]3(O)C[C@H](OC(=O)[C@H](O)[C@@H](NC(=O)c4ccccc4)c4ccccc4)C(C)=C1C3(C)C)[C@]1(OC(C)=O)CO[C@@H]1C[C@@H]2O [paclitaxel] as the compound, how does the “peripheral nerve damage (number of stimuli until twitch) compared to vehicle alone” value read?
**A.** significant nerve damage
